Each structure is given as a SMILES string. pEC50: −log10 of the molar value.

The test has as its system mutant HTT protein (mHTT). Kind of test: Homogeneous Time Resolved Fluorescence (HTRF) assay for HTT lowering. The test is classed as cell-based. Conditions: reduction of mHTT in Huntington patient human cells (GENEAe020-A cell line), 48 hours incubation, mean from three replicates. The protocol:
Homogeneous Time Resolved Fluorescence for HTT lowering
The HTRF assay was adapted from Weiss et al. (Analytical Biochemistry Volume 395, Issue 1, 1 Dec. 2009, Pages 8-15 and Analytical Biochemistry Volume 410, 2011, Pages 304-306) to cells from GENEAe020-A cell line (https://hpscreg.eu/cell-line/GENEAe020-A).
Compounds were tested for the effect of mutant HTT levels in Huntington patient human cells (GENEAe020-A cell line) using Homogeneous Time Resolved Fluorescence (HTRF) directed towards mutant HTT protein (mHTT). The GENEAe020-A cell line was derived by Genea Biocells from human blastocysts of HD donors. After assessing viability, cells were plated into 384 well collagen coated plates in growth media. Once cells adhered, media was removed and test compounds dissolved in DMSO were diluted with buffer solution and added to the adherent cells. Controls included experiments with no cells, DMSO with no compound, and Hsp90 inhibitor control. Cells were incubated with compounds and controls for 48 hours. Then, the cells were lysed and transferred to an assay plate containing HTRF labeled monoclonal antibodies developed by Paul Patterson (Ko et al., Brain Research Bulletin, Volume 56, Numbers 3 and 4, 2001, Pages 319-329) which recognize specific areas of the HTT protein. The terbium labeled “donor” antibody (2B7) binds to the N-terminus of the HTT protein and the Alexa488 labeled “acceptor” antibody (MW1) is specific for the polyglutamine region of the protein. Binding of the acceptor labeled antibody is more efficient for the extended polyglutamine repeats of mutant HTT protein which translates into a signal boost which enables the specific measurement of mutant HTT protein level. The HTRF donor and acceptor detection reagents were incubated with the cell lysate and the ratio between the signals of the two fluorophores is indicative of the relative quantities of mHTT.

Usually pEC50 stands for the EC50 on a negative log10 scale, so that one unit is a factor of ten. A lower pEC50 goes with a high EC50. In the case of `COc1cc(-c2cc(=O)n3cc([C@]4(F)CCNC[C@H]4F)sc3n2)nn2cc(C)nc12` (racemic) [Example 51, 7-(8-methoxy-2-methyl-imidazo[1,2-b]pyridazin-6-yl)-2-[rac-(3R,4S)-3,4-difluoro-4-piperidyl]thiazolo[3,2-a]pyrimidin-5-one], the pEC50 is 6.99.

On to `COc1cc(-c2cc(=O)n3cc([C@]4(F)CCNC[C@@H]4F)sc3n2)nn2cc(C)nc12` (racemic) [Example 52, 7-(8-methoxy-2-methyl-imidazo[1,2-b]pyridazin-6-yl)-2-[rac-(3S,4S)-3,4-difluoro-4-piperidyl]thiazolo[3,2-a]pyrimidin-5-one], for which the pEC50 is 6.63.

For the compound `Cc1cn2nc(-c3cc(=O)n4cc([C@]5(F)CCNC[C@H]5F)sc4n3)cc(C)c2n1` (racemic) [Example 53, 7-(2,8-dimethylimidazo[1,2-b]pyridazin-6-yl)-2-[rac-(3R,4S)-3,4-difluoro-4-piperidyl]thiazolo[3,2-a]pyrimidin-5-one], the negative logarithm of the EC50 (pEC50) was 6.88. This pEC50 is 0.25 log units higher than that of the compound before.

Take `Cc1cn2nc(-c3cc(=O)n4cc([C@]5(F)CCNC[C@@H]5F)sc4n3)cc(C)c2n1` (racemic) [Example 54, 7-(2,8-dimethylimidazo[1,2-b]pyridazin-6-yl)-2-[rac-(3S,4S)-3,4-difluoro-4-piperidyl]thiazolo[3,2-a]pyrimidin-5-one]: the pEC50 is 6.25.

As to `Cc1cn2nc(-c3cc(=O)n4cc(N5CCNCC5)sc4n3)cc(C)c2n1` [Example 1, 7-(2,8-dimethylimidazo[1,2-b]pyridazin-6-yl)-2-piperazin-1-yl-thiazolo[3,2-a]pyrimidin-5-one], the pEC50 is 7.34.

On to `Cc1cn2nc(-c3cc(=O)n4cc(C5=CCNCC5)sc4n3)cc(C)c2n1` [Example 2, 7-(2,8-dimethylimidazo[1,2-b]pyridazin-6-yl)-2-(1,2,3,6-tetrahydropyridin-4-yl)thiazolo[3,2-a]pyrimidin-5-one], for which the pEC50 was 7.27.

`Cc1cn2nc(-c3cc(=O)n4cc(N5CCNC(C)(C)C5)sc4n3)cc(C)c2n1` [Example 3, 7-(2,8-dimethylimidazo[1,2-b]pyridazin-6-yl)-2-(3,3-dimethylpiperazin-1-yl)thiazolo[3,2-a]pyrimidin-5-one]: the pEC50 was 6.20.

`Cc1cn2nc(-c3cc(=O)n4cc(N5CCNC6(CC6)C5)sc4n3)cc(C)c2n1` [Example 4, 2-(4,7-diazaspiro[2.5]octan-7-yl)-7-(2,8-dimethylimidazo[1,2-b]pyridazin-6-yl)thiazolo[3,2-a]pyrimidin-5-one]: the negative-log EC50 (pEC50) was 5.45. This pEC50 lies 0.75 log units lower than the previous one.

As for `Cc1nc2c(F)cc(-c3cc(=O)n4cc(N5CCNCC5)sc4n3)cc2o1` [Example 5, 7-(4-fluoro-2-methyl-1,3-benzoxazol-6-yl)-2-piperazin-1-yl-thiazolo[3,2-a]pyrimidin-5-one], the negative logarithm of the EC50 (pEC50) was 6.30.

In turn, `Cc1cn2nc(-c3cc(=O)n4cc(N5CCN[C@@H](C)C5)sc4n3)cc(C)c2n1` [Example 6, 7-(2,8-dimethylimidazo[1,2-b]pyridazin-6-yl)-2-[(3S)-3-methylpiperazin-1-yl]thiazolo[3,2-a]pyrimidin-5-one] had a pEC50 of 6.57.

`Cc1cn2nc(-c3cc(=O)n4cc(N5CCN[C@H](C)C5)sc4n3)cc(C)c2n1` [Example 7, 7-(2,8-dimethylimidazo[1,2-b]pyridazin-6-yl)-2-[(3R)-3-methylpiperazin-1-yl]thiazolo[3,2-a]pyrimidin-5-one] gave a pEC50 of 7.28.

For the compound `Cc1cn2nc(-c3cc(=O)n4cc(N5CC(C)NC(C)C5)sc4n3)cc(C)c2n1` (stereo not drawn) [Example 8, 7-(2,8-dimethylimidazo[1,2-b]pyridazin-6-yl)-2-(3,5-dimethylpiperazin-1-yl)thiazolo[3,2-a]pyrimidin-5-one], the negative logarithm of the EC50 (pEC50) was 6.41.

For the compound `Cc1cn2nc(-c3cc(=O)n4cc(N5CCN6CCC[C@H]6C5)sc4n3)cc(C)c2n1` [Example 9, 7-(2,8-dimethylimidazo[1,2-b]pyridazin-6-yl)-2-[(8aS)-3,4,6,7,8,8a-hexahydro-1H-pyrrolo[1,2-a]pyrazin-2-yl]thiazolo[3,2-a]pyrimidin-5-one], the negative-log EC50 (pEC50) was 6.10.

Compound `Cc1cn2nc(-c3cc(=O)n4cc(N5CCNCC5)sc4n3)ccc2n1` [Example 10, 7-(2-methylimidazo[1,2-b]pyridazin-6-yl)-2-piperazin-1-yl-thiazolo[3,2-a]pyrimidin-5-one] had a pEC50 of 6.55.

With `Cc1cn2nc(-c3cc(=O)n4cc(N5CCNCC5)sc4n3)cc(C(F)(F)F)c2n1` [Example 11, 7-[2-methyl-8-(trifluoromethyl)imidazo[1,2-b]pyridazin-6-yl]-2-piperazin-1-yl-thiazolo[3,2-a]pyrimidin-5-one], the pEC50 is 7.72.

Compound `CCc1cc(-c2cc(=O)n3cc(N4CCNCC4)sc3n2)nn2cc(C)nc12` [Example 12, 7-(8-ethyl-2-methyl-imidazo[1,2-b]pyridazin-6-yl)-2-piperazin-1-yl-thiazolo[3,2-a]pyrimidin-5-one] had a negative-log EC50 (pEC50) of 6.98.

`COc1cc(-c2cc(=O)n3cc(N4CCNCC4)sc3n2)nn2cc(C)nc12` [Example 13, 7-(8-methoxy-2-methyl-imidazo[1,2-b]pyridazin-6-yl)-2-piperazin-1-yl-thiazolo[3,2-a]pyrimidin-5-one] had a pEC50 of 6.93.

`Cc1cn2nc(-c3cc(=O)n4cc(N5C6CCC5CNC6)sc4n3)cc(C)c2n1` [Example 14, 2-(3,8-diazabicyclo[3.2.1]octan-8-yl)-7-(2,8-dimethylimidazo[1,2-b]pyridazin-6-yl)thiazolo[3,2-a]pyrimidin-5-one] showed a pEC50 of 6.03. This pEC50 lies 0.90 log units lower than the previous one.

As for `Cc1cn2nc(-c3cc(=O)n4cc(N5CCN6CCC[C@@H]6C5)sc4n3)cc(C)c2n1` [Example 15, 7-(2,8-dimethylimidazo[1,2-b]pyridazin-6-yl)-2-[(8aR)-3,4,6,7,8,8a-hexahydro-1H-pyrrolo[1,2-a]pyrazin-2-yl]thiazolo[3,2-a]pyrimidin-5-one], the pEC50 is 6.91. This pEC50 is 0.88 log units higher than that of the compound before.

With `Cc1cn2nc(-c3cc(=O)n4cc(N5C[C@@H]6C[C@H]5CN6)sc4n3)cc(C)c2n1` [Example 16, 7-(2,8-dimethylimidazo[1,2-b]pyridazin-6-yl)-2-[(1S,4S)-2,5-diazabicyclo[2.2.1]heptan-2-yl]thiazolo[3,2-a]pyrimidin-5-one], the pEC50 is 5.02.

`Cc1cn2nc(-c3cc(=O)n4cc(N5CC6CNCC6C5)sc4n3)cc(C)c2n1` (stereo not drawn) [Example 17, 2-(2,3,3a,4,6,6a-hexahydro-1H-pyrrolo[3,4-c]pyrrol-5-yl)-7-(2,8-dimethylimidazo[1,2-b]pyridazin-6-yl)thiazolo[3,2-a]pyrimidin-5-one]: the pEC50 is 6.38.

`Cc1cn2nc(-c3cc(=O)n4cc(N5CCNCC5)sc4n3)cc(C3CC3)c2n1` [Example 18, 7-(8-cyclopropyl-2-methyl-imidazo[1,2-b]pyridazin-6-yl)-2-piperazin-1-yl-thiazolo[3,2-a]pyrimidin-5-one] gave a pEC50 of 6.33. This pEC50 and that of the compound before are within 0.2 log units of each other.

In the case of `C=C(C)c1cc(-c2cc(=O)n3cc(N4CCNCC4)sc3n2)nn2cc(C)nc12` [Example 19, 7-(8-isopropenyl-2-methyl-imidazo[1,2-b]pyridazin-6-yl)-2-piperazin-1-yl-thiazolo[3,2-a]pyrimidin-5-one], the pEC50 is 5.52.

In the case of `Cc1nc2c(C)cc(-c3cc(=O)n4cc(N5CCNCC5)sc4n3)nc2o1` [Example 20, 7-(2,7-dimethyloxazolo[5,4-b]pyridin-5-yl)-2-piperazin-1-yl-thiazolo[3,2-a]pyrimidin-5-one], the pEC50 was 6.87.

(Values after US20240018163A1, “NEW THIAZOLOPYRIMIDINONE DERIVATIVES” (Hoffmann-La Roche Inc., priority 2021, published 2024).)
